According to paper PMC10673511, “Design, Synthesis and Bioactivity Evaluation of Heterocycle-Containing Mono- and Bisphosphonic Acid Compounds” (Molecules, 2023):
≈ marks a conversion by molar mass, not a printed value. Where two headings read alike, the source gives them in different places.

Assays:
Arabidopsis thaliana = assay: Arabidopsis growth inhibition assay (24-well plates, green channel pixel value); conditions: Arabidopsis thaliana, 240 h; for EC50: read-out: EC50 against Arabidopsis growth; for pest or weed control at 100 µg/mL: read-out: InR (%) against Arabidopsis
Brassica napus L. = assay: Pre-emergence herbicidal inhibition assay, Petri dish test, BN; assay type: in vivo; conditions: for EC50: Brassica napus, 168 h, 7 days; for Relative activity ratio (BN root) / Relative activity ratio (BN stalk): relative to FOS
Method: (§1) The pre-emergence activity of the compounds against monocot Echinochloa crus-galli (EC) and dicot Brassica napus L. (BN) was evaluated using the standard Petri dish test. The compounds were dissolved in DMF, emulsified with Tween-80 and diluted with water to form stock solutions, each of which was further diluted to a gradient of 100, 50, 25, 10 and 1 mg/L for test. The test solutions were added to Petri dishes lined with a filter paper, on which 10 seeds of EC and BN were placed. After cultured in an intelligent climate chamber with a humidity of 65% at 26 °C for 7 days, the corresponding EC50 values were calculated.

[1] = target: recombinant E. coli DXR (EcDXR) (Escherichia coli, UniProt P45568); assay: biochemical; conditions: read-out: InR (%) on DXR enzyme
Echinochloa crus-galli = assay: Pre-emergence herbicidal inhibition assay, Petri dish test, EC; assay type: in vivo; conditions: for EC50: Echinochloa crus-galli, 168 h, 7 days; for Relative activity ratio (EC root) / Relative activity ratio (EC stalk): relative to FOS
Method: as §1

recombinant E. coli DXR (EcDXR), sequence (P45568 whole entry): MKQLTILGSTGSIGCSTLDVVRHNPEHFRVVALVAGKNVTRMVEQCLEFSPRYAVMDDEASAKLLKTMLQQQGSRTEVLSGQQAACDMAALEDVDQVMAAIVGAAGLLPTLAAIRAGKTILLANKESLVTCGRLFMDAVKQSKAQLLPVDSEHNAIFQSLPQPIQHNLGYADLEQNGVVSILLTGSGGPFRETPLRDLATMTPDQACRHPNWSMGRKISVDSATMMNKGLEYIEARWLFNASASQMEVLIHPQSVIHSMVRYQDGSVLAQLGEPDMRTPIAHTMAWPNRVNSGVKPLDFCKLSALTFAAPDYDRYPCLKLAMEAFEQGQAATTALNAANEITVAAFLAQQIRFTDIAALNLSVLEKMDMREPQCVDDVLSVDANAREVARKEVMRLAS

SMILES | EC50 (Arabidopsis thaliana) | pest or weed control at 100 µg/mL (Arabidopsis thaliana) | melting point | EC50 (Brassica napus L.; root, read-out: EC50 BN Root) | EC50 (Brassica napus L.; stalk, read-out: EC50 BN Stalk) | inhibition at 100 µM [1] | EC50 (Echinochloa crus-galli; root, read-out: EC50 EC Root) | EC50 (Echinochloa crus-galli; stalk, read-out: EC50 EC Stalk) | Relative activity ratio (BN root) (Brassica napus L.) | Relative activity ratio (BN stalk) (Brassica napus L.) | Relative activity ratio (EC root) (Echinochloa crus-galli) | Relative activity ratio (EC stalk) (Echinochloa crus-galli)
CCCc1n[nH]c(O)c1CC(P(=O)(O)O)P(=O)(O)O [Compound 12c] | > 100 µg/mL | 49.7% | > 250 °C | 55.1 µg/mL (≈ 175 µM) | 33.1 µg/mL (≈ 105 µM) | 32.3% | 68.3 µg/mL (≈ 217 µM) | 36.4 µg/mL (≈ 116 µM) |  |  |  | 
CC(C)c1n[nH]c(O)c1CC(P(=O)(O)O)P(=O)(O)O [Compound 12d] | > 100 µg/mL | 44.8% | > 250 °C | 21.2 µg/mL (≈ 67.5 µM) | 41.5 µg/mL (≈ 132 µM) | 12.4% | > 100 µg/mL | 39.1 µg/mL (≈ 124 µM) |  |  |  | 
O=P(O)(O)C(Cc1c(C(F)(F)F)n[nH]c1O)P(=O)(O)O [Compound 12e] | > 100 µg/mL | 31.5% | 225 to 226 °C | > 100 µg/mL | 45.7 µg/mL (≈ 134 µM) | 22.8% | 46.8 µg/mL (≈ 138 µM) | > 100 µg/mL |  |  |  | 
O=P(O)(O)C(Cc1c(C(F)F)n[nH]c1O)P(=O)(O)O [Compound 12f] | > 100 µg/mL | 47% | 228 to 229 °C | 15.6 µg/mL (≈ 48.4 µM) | 22.3 µg/mL (≈ 69.2 µM) | 6.1% | 36.5 µg/mL (≈ 113 µM) | 12.6 µg/mL (≈ 39.1 µM) |  |  |  | 
Cc1n[nH]c(C)c1CC(P(=O)(O)O)P(=O)(O)O [Compound 12g] | > 100 µg/mL | 40.4% | > 250 °C | > 100 µg/mL | 32.9 µg/mL (≈ 116 µM) | 11.6% | 38.8 µg/mL (≈ 137 µM) | 31.4 µg/mL (≈ 111 µM) |  |  |  | 
CCc1n[nH]c(CC)c1CC(P(=O)(O)O)P(=O)(O)O [Compound 12h] | > 100 µg/mL | 41.2% | > 250 °C | 40.1 µg/mL (≈ 128 µM) | 22.3 µg/mL (≈ 71.4 µM) | 2.3% | 44.2 µg/mL (≈ 142 µM) | 31.1 µg/mL (≈ 99.6 µM) |  |  |  | 
Cc1n[nH]c(C(F)(F)F)c1CC(P(=O)(O)O)P(=O)(O)O [Compound 12i] | 88.3 ± 4.3 µg/mL (≈ 261 µM) | 55.8% | > 250 °C | 36.6 µg/mL (≈ 108 µM) | 21.7 µg/mL (≈ 64.2 µM) | 27.1% | 53.1 µg/mL (≈ 157 µM) | 47.7 µg/mL (≈ 141 µM) | 0.9 fold | 1.5 fold | 0.8 fold | 0.8 fold
CCc1onc(O)c1CC(P(=O)(O)O)P(=O)(O)O [Compound 13b] | 37.7 ± 2.8 µg/mL (≈ 125 µM) | 100% |  | 38.8 µg/mL (≈ 129 µM) | 20.2 µg/mL (≈ 67.1 µM) | 27.4% | 29.9 µg/mL (≈ 99.3 µM) | 35.3 µg/mL (≈ 117 µM) | 0.9 fold | 1.6 fold | 1.3 fold | 1.1 fold
CCCc1onc(O)c1CC(P(=O)(O)O)P(=O)(O)O [Compound 13c] | 48.4 ± 5.3 µg/mL (≈ 154 µM) | 100% |  | 27.7 µg/mL (≈ 87.9 µM) | 46.9 µg/mL (≈ 149 µM) | 28.4% | 43.9 µg/mL (≈ 139 µM) | 45.8 µg/mL (≈ 145 µM) | 1.3 fold | 0.7 fold | 0.9 fold | 0.8 fold
Cc1noc(C)c1CC(P(=O)(O)O)P(=O)(O)O [Compound 13g] | > 100 µg/mL | 39.7% | > 250 °C | 60.4 µg/mL (≈ 212 µM) | 41.5 µg/mL (≈ 146 µM) | 7.3% | 79.8 µg/mL (≈ 280 µM) | 32.3 µg/mL (≈ 113 µM) |  |  |  | 
CCc1noc(CC)c1CC(P(=O)(O)O)P(=O)(O)O [Compound 13h] | > 100 µg/mL | 43.2% | > 250 °C | 39.2 µg/mL (≈ 125 µM) | 50.8 µg/mL (≈ 162 µM) | 10.3% | 48 µg/mL (≈ 153 µM) | 45.7 µg/mL (≈ 146 µM) |  |  |  | 
Cc1onc(C(F)(F)F)c1CC(P(=O)(O)O)P(=O)(O)O [Compound 13i] | 40.7 ± 2.9 µg/mL (≈ 120 µM) | 90.1% | 240 to 241 °C | 40.5 µg/mL (≈ 119 µM) | 33.5 µg/mL (≈ 98.8 µM) | 30.3% | 32.1 µg/mL (≈ 94.7 µM) | 34.6 µg/mL (≈ 102 µM) | 0.9 fold | 1.0 fold | 1.3 fold | 1.1 fold
CC1(C)CON(CCCP(=O)(O)O)C1=O [Compound 19] | > 100 µg/mL | 43.2% | > 250 °C | 79.3 µg/mL (≈ 334 µM) | 39.2 µg/mL (≈ 165 µM) | 22.5% | > 100 µg/mL | 88 µg/mL (≈ 371 µM) | 0.4 fold | 0.8 fold | 0.4 fold | 0.4 fold
